Publication PMC4584933, “Establishing the pig as a large animal model for vaccine development against human cancer” (Frontiers in Genetics, 2015)

Columns and labels:
SLA-2*05:02 = assay: Peptide-MHC class I complex stability, scintillation proximity assay (SPA); parameters: species or system pig; conditions: biotinylated recombinant SLA heavy chain, 125I-β2m, excess unlabeled β2m, read every 40 min, number only if t1/2 ≥ 0.5 h, '-' = not stably binding
Method: (§1) The stability of the selected 198 peptides in complex with relevant SLA class I molecules and β2m was determined using a scintillation proximity assay (SPA), as previously described (Harndahl et al., [2011]). Briefly, biotinylated recombinant MHC class I heavy chains were attached to a streptavidin-coated scintillation microplate together with iodinated (^125I) β2m and candidate peptide resulting in a scintillation signal, which was consecutively measured every 40 min by a scintillation plate counter. The duration of this signal is directly correlated to the stability of the peptide-MHC class I-β2m complex under dissociating conditions and in the presence of excess unlabeled β2m (Harndahl et al., [2011]). Peptides with a half-life ≥ 0.5 h were selected as stable binders.

SLA-3*04:01 = assay: as above; parameters: species or system pig; conditions: biotinylated recombinant SLA heavy chain, 125I-β2m, excess unlabeled β2m, read every 40 min, number only if t1/2 ≥ 0.5 h, '-' = not stably binding
Method: as §1

SLA-2*04:01 = assay: as above; parameters: species or system pig; conditions: biotinylated recombinant SLA heavy chain, 125I-β2m, excess unlabeled β2m, read every 40 min, number only if t1/2 ≥ 0.5 h, '-' = not stably binding
Method: as §1

PBMCs = assay: In vitro peptide stimulation of porcine PBMCs, IFN-γ release assay (ELISA); type: cell-based, pig; parameters: key to T cell response: “x” indicates that a response was found to this given peptide at least once; conditions: PBMCs of immunized pigs, 2 × 10^5/well, 5 μg/ml peptide, 67.5–70.0 h, IFN-γ ELISA; response = 2-fold increase vs day -2 and at least 25 pg/ml IFN-γ, found at least once; SLA restriction not included

| Sequence | Binder (t1/2 ≥ 0.5 h): half-life of peptide-SLA-2*05:02 complex (SLA-2*05:02) | Binder (t1/2 ≥ 0.5 h): half-life of peptide-SLA-3*04:01 complex (SLA-3*04:01) | Binder (t1/2 ≥ 0.5 h): half-life of peptide-SLA-2*04:01 complex (SLA-2*04:01) | T cell response (PBMCs) |
| --- | --- | --- | --- | --- |
| KVIPTLFNAI [IDO61, porcine IDO-derived 9-11mer peptide] | - (t1/2 (hours) is listed for each of the stably binding peptides (t1/2 ≥ 0.5 h)) |  |  |  |
| ENRGTGGTNVI [IDO19, porcine IDO-derived 9-11mer peptide] | - (t1/2 (hours) is listed for each of the stably binding peptides (t1/2 ≥ 0.5 h)) |  |  |  |
| KLSEKLGLPPI [IDO56, porcine IDO-derived 9-11mer peptide] | - (t1/2 (hours) is listed for each of the stably binding peptides (t1/2 ≥ 0.5 h)) |  |  |  |
| RNYHLQIVTKY [IDO112, porcine IDO-derived 9-11mer peptide] |  | 30 min | 216 min |  |
| DIRKVLPRNI [IDO10, porcine IDO-derived 9-11mer peptide] | - (t1/2 (hours) is listed for each of the stably binding peptides (t1/2 ≥ 0.5 h)) |  |  |  |
| FLVSLLVEI [IDO25, porcine IDO-derived 9-11mer peptide] | - (t1/2 (hours) is listed for each of the stably binding peptides (t1/2 ≥ 0.5 h)) |  |  |  |
| ENIPEKWTPEV [RhoC18, porcine RhoC-derived 9-11mer peptide] | 90 min |  |  | x |
| RNFLHSLES [IDO105, porcine IDO-derived 9-11mer peptide] |  | 882 min |  | x |
| LSEKLGLPPI [IDO72, porcine IDO-derived 9-11mer peptide] | - (t1/2 (hours) is listed for each of the stably binding peptides (t1/2 ≥ 0.5 h)) |  |  |  |
| EVKHFCPNVPI [RhoC24, porcine RhoC-derived 9-11mer peptide] | 336 min |  |  | x |
| ENIPEKWTP [RhoC17, porcine RhoC-derived 9-11mer peptide] | 66 min |  |  |  |
| LLVEIAAASAI [IDO68, porcine IDO-derived 9-11mer peptide] | 30 min |  |  | x |
| FLHSLESGPSV [IDO23, porcine IDO-derived 9-11mer peptide] | 36 min |  |  | x |
| ELAKMKQEPVR [RhoC16, porcine RhoC-derived 9-11mer peptide] | 48 min |  |  | x |
| AIAKNLPELI [IDO3, porcine IDO-derived 9-11mer peptide] | 54 min |  |  |  |
| HLQIVTKYIVI [IDO39, porcine IDO-derived 9-11mer peptide] | 36 min |  |  |  |
| ALQKALLDI [IDO5, porcine IDO-derived 9-11mer peptide] | - (t1/2 (hours) is listed for each of the stably binding peptides (t1/2 ≥ 0.5 h)) |  |  | x |
| TVFENYIADI [RhoC51, porcine RhoC-derived 9-11mer peptide] | 54 min |  |  | x |
| RNFLHSLESGP [IDO107, porcine IDO-derived 9-11mer peptide] |  | 42 min |  | x |
| KALEVFHQI [IDO45, porcine IDO-derived 9-11mer peptide] | - (t1/2 (hours) is listed for each of the stably binding peptides (t1/2 ≥ 0.5 h)) |  |  |  |
| VPTVFENYI [RhoC54, porcine RhoC-derived 9-11mer peptide] | 108 min |  |  |  |
| QRLAHLVLGY [IDO102, porcine IDO-derived 9-11mer peptide] |  | - (t1/2 (hours) is listed for each of the stably binding peptides (t1/2 ≥ 0.5 h)) | - (t1/2 (hours) is listed for each of the stably binding peptides (t1/2 ≥ 0.5 h)) |  |
| RNYHLQIVTK [IDO111, porcine IDO-derived 9-11mer peptide] |  | - (t1/2 (hours) is listed for each of the stably binding peptides (t1/2 ≥ 0.5 h)) | - (t1/2 (hours) is listed for each of the stably binding peptides (t1/2 ≥ 0.5 h)) |  |
